Assay results published in paper PMC12295306, “Gut Microbial Postbiotics as Potential Therapeutics for Lymphoma: Proteomics Insights of the Synergistic Effects of Nisin and Urolithin B Against Human Lymphoma Cells” (International Journal of Molecular Sciences, 2025).

How the values were obtained:
[1] = test system: HKB-11 lymphoma cells; test: Flow cytometry apoptosis profile, Annexin V-CF Blue / 7-AAD; format: cell-based, human; conditions: 24 h
Protocol: The HKB-11 cells were cultured in T75 cell culture flasks with an initial density of 1 × 10^6 cells per 10 mL at 37 °C in the presence of 5% CO2 for 24 h. The following day, the cell culture media was removed from each flask and replaced with fresh FBS-containing media. […] An FBS-containing medium was used as the untreated control. The flasks were then incubated at 37 °C with 5% CO2 for 24 h. Then, the cell culture media from each flask were collected. Subsequently, trypsin (0.25% w/v) was applied to the flasks for 4 min at 37 °C. The trypsin reaction was neutralised with an equal volume of 10% FBS serum-containing media, and the cells were combined with the previously collected media. The cell pellets were obtained by centrifuging at 500× g for 5 min at room temperature (RT). This procedure was repeated by suspending the cell pellets in 1 mL of PBS each time. The collected cell pellets from each treatment were immediately suspended in 500 μL of 1× binding buffer and gently mixed by pipetting. Annexin V-CF Blue (5 μL) and 7-AAD (5 μL) staining solutions were added to 100 μL of the cell suspension. The stained cells were incubated for 15 min in the dark at RT, after which 400 μL of a 1× assay buffer was added to each cell suspension. Subsequently, the cells were examined using a flow cytometer (Novocyte 3000, ACEA Biosciences Inc., San Diego, CA, USA), and data analysis and processing were performed using NovoExpress software (version 1.5.0, ACEA Biosciences Inc., CA, USA). In the initial step, the cells were gated on forward and side scatter modes to exclude cell aggregates and debris near the origin. The cells were then gated on dot plots, where Annexin V-CF in Pacific Blue was plotted against 7-AAD fluorescence in PerCP. Quadrants were positioned relative to the untreated control, indicating live cells ([…] and −7-AAD) appearing in the lower-left quadrant, early apoptotic cells (+Annexin V and −7-AAD) in the lower-right quadrant, late apoptotic cells (+Annexin V and +7-AAD) in the upper-right quadrant, and necrotic cells (−Annexin V and +7-AAD) in the upper-left quadrant. For statistical analyses and visualisation, the percentage data of cells in each quadrant after different treatments (n = 3) were exported to GraphPad Prism software (version 9.0, San Diego, CA, USA).

[2] = test system: HKB-11 lymphoma cells; test: Label-free bottom-up LC-MS proteomics, differentially expressed proteins; format: cell-based, human
Protocol: The HKB-11 lymphoma cells were placed in 6-well plates at a density of 3.0 × 10^6 cells/well and incubated overnight at 37 °C in 5% CO2. […] Treatments were performed in triplicate and incubated for 24 h under the same conditions. Following incubation, each flask of cells was subjected to a 0.25% w/v trypsin treatment for 4 min at 37 °C, and the cell culture medium was collected. Additionally, an equal volume of DMEM F-12 medium (containing 10% FBS) was added before mixing with the previously collected media to neutralise the trypsin. The cells were spun in a centrifuge at 500× g for 5 min at RT. The cell pellets were washed twice with ice-cold PBS and spun again at 500× g for 5 min. These cell pellets were then suspended in a lysis buffer that included 1 μL of universal nuclease (Easypep Mini Kit) (Thermo Fisher Scientific, Sydney, NSW, Australia) and supplemented with Halt™ Protease and Phosphatase Inhibitor Cocktail in a 1:100 ratio (Thermo Fisher Scientific, Sydney, NSW, Australia). The cells were gently pipetted 10–15 times to reduce the sample’s viscosity and then placed on ice for 20 min. The lysate was centrifuged at 14,000 rpm for 20 min at 4 °C, and the resulting liquid was collected.
The Pierce™ Rapid Gold BCA Protein Assay Kit (#A53226, Thermo Fisher Scientific, Sydney, NSW, Australia) was used to determine the protein concentration of the cell lysate in triplicate, using a bovine serum albumin (BSA) standard, following the manufacturer’s protocol. In brief, 1 μL of each sample replicate was diluted 1:20 in Milli-Q water, along with 20 μL of each standard, and then placed in a 96-well plate with 200 μL of working reagent in each well. Samples were diluted to a concentration within the 20–2000 μg/mL working range. The plate was thoroughly mixed on a plate shaker for 30 s and incubated at RT for 5 min, and then the absorbance was measured within 20 min at 480 nm using a microplate spectrophotometer (BMG CLARIOstar, Melbourne, VIC, Australia). The blank absorbance was subtracted from all other readings of standards and samples, and the sample concentration was determined using the established BSA standard calibration curve. The samples were then stored at −80 °C for further analysis.
The protein samples (100 μg) were subjected to chemical and enzymatic sample processing using the EasyPep™ Mini MS Sample Prep Kit following the manufacturer’s instructions (Thermo Fisher Scientific, Sydney, NSW, Australia) and as reported in the literature. Briefly, the sample volume was adjusted to 100 μL using a lysis buffer in a microcentrifuge tube. Subsequently, the reduction and alkylation solutions (50 μL each) were introduced, gently mixed, and incubated at 95 °C with a heat block for 10 min. The samples were allowed to cool to RT, after which 50 μL of the reconstituted trypsin/lys-C protease mixture was added to each sample and incubated with shaking at 37 °C for 3 h. Following incubation, 50 μL of a digestion stop solution was gently mixed into the samples. Peptide clean-up columns were used to remove both hydrophilic and hydrophobic impurities. The resulting clean peptide samples were dehydrated using a vacuum centrifuge and reconstituted in 100 μL of a 0.1% formic acid solution in water for LC–MS analysis. Subsequently, these samples were carefully transferred to maximum recovery sample vials (Waters Corp., Milford, MA, USA).
Label-free, bottom-up proteomic quantification was performed using a micro high-performance liquid chromatography system (Waters M-Class) coupled with a SCIEX™ TripleTOF® 6600 quadrupole time-of-flight mass spectrometer (SCIEX, Framingham, MA, USA), operated in positive electrospray ionisation mode (ESI+). […]

[3] = cited from earlier work
Text: Both N and UB face challenges regarding bioavailability. […] Thus, formulation strategies or delivery systems to enhance systemic exposure warrant exploration in future studies.

[4] = HKB-11, UB 300 μM, 24 h, vs untreated control, Q ≤ 0.05
[5] = HKB-11, N 3200 μM, 24 h, vs untreated control, Q ≤ 0.05

O=c1oc2cc(O)ccc2c2ccccc12 [UB, Urolithin B]
Apoptosis induction compared to the untreated control ([1]; HKB-11, 500 µM, p ≤ 0.0001): greater apoptotic induction | Log2FC APOC3 (Apolipoprotein C-III) [2, 4]: 2.04 | Log2FC C4BPA (C4b-binding protein alpha chain) [2, 4]: 4.39 | Log2FC CLEC11A (C-type lectin domain family 11 member A) [2, 4]: 3.06 | Log2FC COX6C (Cytochrome c oxidase subunit 6C) [2, 4]: 2.07 | Log2FC COX7C (Cytochrome c oxidase subunit 7C, mitochondrial) [2, 4]: 2.08 | Log2FC FGB (Fibrinogen beta chain) [2, 4]: 2.14 | Log2FC GSN (Gelsolin) [2, 4]: 2.26 | Log2FC HBD (Haemoglobin subunit delta; Haemoglobin subunit beta) [2, 4]: 5.94 | Log2FC HBE1 (Haemoglobin subunit epsilon; gam1; gamma-2) [2, 4]: 5.63 | Log2FC ITIH2 (Inter-alpha-trypsin inhibitor heavy chain H2) [2, 4]: 2.76 | Log2FC MAD2L1 (Mitotic spindle assembly checkpoint protein MAD2A) [2, 4]: −1.45 | Log2FC MT-CO2 (Cytochrome c oxidase subunit 2) [2, 4]: 2.34 | Log2FC MT-ND4 (NADH-ubiquinone oxidoreductase chain 4) [2, 4]: 2.24 | Log2FC NDUFA11 (NADH dehydrogenase [ubiquinone] 1 alpha subcomplex subunit 11) [2, 4]: 2.18 | Log2FC PCNA (Proliferating cell nuclear antigen) [2, 4]: −0.63 | Log2FC PSME3 (Proteasome activator complex subunit 3) [2, 4]: −0.59 | Log2FC SAMM50 (Sorting and assembly machinery component 50 homolog) [2, 4]: 2.01 | Log2FC UBE2E1 (Ubiquitin-conjugating enzyme E2 E1; E2 E3; E2 E2) [2, 4]: −1.69 | Log2FC UBE2S (Ubiquitin-conjugating enzyme E2 S) [2, 4]: −1.21 | Metabolism [3]: extensively metabolised | Oral bioavailability [3]: moderate oral bioavailability

Nisin (ITSISLCTPGCKTGALMGCNMKTATCHCSIHVSK; Lantibiotic nisin-A; UniProt P13068 24-57, looked up) [34-amino-acid lantibiotic peptide (bacteriocin) produced by Lactococcus lactis; purchased]
Apoptosis induction ([1]; HKB-11, 3200 µM, p ≤ 0.0001, compared with 8000 μM): induced apoptosis with greater potency | Cell death relative to untreated controls ([1]; HKB-11, 8000 μM, p ≤ 0.01, apoptotic and necrotic populations elevated): significantly increased cell death | Log2FC CDK4 (Cyclin-dependent kinase 4) [2, 5]: −1.26 | Log2FC CTNNA1 (Catenin alpha-1) [2, 5]: −0.97 | Log2FC HDAC1 (Histone deacetylase 1) [2, 5]: −0.67 | Log2FC LARP1 (La-related protein 1) [2, 5]: −1.27 | Log2FC MAPK14 (Mitogen-activated protein kinase 14) [2, 5]: −0.80 | Log2FC NUP62 (Nuclear pore glycoprotein p62) [2, 5]: −0.60 | Log2FC POLR2E (DNA-directed RNA polymerases I, II, and III subunit RPABC1) [2, 5]: −0.62 | Log2FC POLR2G (DNA-directed RNA Polymerase II subunit RPB7) [2, 5]: −0.63 | Log2FC POLR2H (DNA-directed RNA polymerases I, II, and III subunit RPABC3) [2, 5]: −0.59 | Log2FC PPP1R14B (Protein phosphatase 1 regulatory subunit 14B) [2, 5]: −0.93 | Log2FC PRC1 (Protein regulator of cytokinesis 1) [2, 5]: −0.72 | Log2FC RFC1 (Replication factor C subunit 1) [2, 5]: −0.85 | Log2FC RFC2 (Replication factor C subunit 2) [2, 5]: −0.59 | Log2FC SRPK2 (SRSF protein kinase 2) [2, 5]: −0.70 | Log2FC TYMS (Thymidylate synthase) [2, 5]: −1.54 | Log2FC PCNA ([2]; HKB-11, N treatment (3200 µM), 24 h, vs untreated control): −0.63 | Log2FC PLPBP (Pyridoxal phosphate homeostasis protein) ([2]; HKB-11, Nisin_3.2 / Control, Qvalue 0.00903294): 0.58 | Log2FC THOC3 (THO complex subunit 3) ([2]; HKB-11, Nisin_3.2 / Control, Qvalue 0.0139626): -0.58 | Log2FC MAZ (Myc-associated zinc finger protein) ([2]; HKB-11, Nisin_3.2 / Control, Qvalue 0.0377318): -0.58 | Log2FC TXNDC9 (Thioredoxin domain-containing protein 9) ([2]; HKB-11, Nisin_3.2 / Control, Qvalue 0.0383948): -0.58 | Proteolytic stability [3]: susceptibility to proteolytic degradation | Stability in the gastrointestinal tract [3]: degraded in the gastrointestinal tract | Systemic absorption [3]: low systemic absorption
